The record followed here is US12121521B2, “Uses of salt-inducible kinase (SIK) inhibitors for treating osteoporosis” (The General Hospital Corporation, priority 2016, dated 2024).

Test [1] relates to male mice. Nature of the test: Acute YKL-05-099 administration: bone gene expression. The following applies: single I.P. dose 20 μmol/kg, 2 hours. It counts as in vivo, mouse. As to the method: Whole cell extracts were generated, followed by immunoblotting. […] RNA was prepared, and gene expression analyzed by RT-qPCR. […] 2 hours later, animals were sacrificed, RNA was prepared from femurs, and gene expression analyzed by RT-qPCR. […] Animals were sacrificed 2 hours after the final dose, and RNA from femurs analyzed for the indicated genes. BGLAP encodes osteocalcin. * indicated p<0.01 versus vehicle, # indicates p<0.05 versus vehicle. (FIGS. 8E to 8K), static and dynamic histomorphometry were performed on the tibia from the same mice as in FIG. 8D. Each data point represents an individual mouse, p values for each difference are shown on the graph. (FIG. 8L) Representative photomicrograph showing increased osteoblasts on cancellous bone surfaces from YKL-05-099-treated mice.
All animals were housed in the Center for Comparative Medicine at the Massachusetts General Hospital, and all experiments were approved by the hospital's Subcommittee on Research Animal Care. HDAC5-null mice (70) and HDAC4 f/f mice (71) were generously provided by Dr. Eric Olson (University of Texas Southwestern Medical Center, Dallas, TX) and were backcrossed to C57B/6 mice for at least 6 generations. […] In all instances, skeletal phenotypes were evaluated in 8 week-old sex-matched littermates. […]

Test [2] relates to oophorectomized (OVX) female C57B/6 mice. Nature of the test: OVX mice: micro-CT, histomorphometry, bone turnover markers. The class given is in vivo, mouse. The procedure:
Assessment of bone morphology and microarchitecture was performed with high-resolution micro-computed tomography (pCT40; Scanco Medical, Brüttisellen, Switzerland). In brief, the distal femoral metaphysis and mid-diaphysis were scanned using 70 kVp peak x-ray tube potential, 113 mAs x-ray tube current, 200 ms integration time, and 10-μm isotropic voxel size. Cancellous bone was assessed in the distal metaphysis and cortical bone was assessed in the mid-diaphysis. The femoral metaphysis region began 1700 μm proximal to the distal growth plate and extended 1500 μm distally. Cancellous bone was separated from cortical bone with a semiautomated contouring program. For the cancellous bone region, bone volume fraction (BV/TV, %), trabecular thickness (Tb.Th, mm), trabecular separation (Tb.Sp, mm), trabecular number (Tb.N, 1/mm), connectivity density (Conn.D or ConnD, 1/mm^3), and structure model index (SMI) were assessed. Transverse CT slices were also acquired in a 500 μm long region at the femoral mid-diaphysis to assess total cross-sectional area, cortical bone area, and medullary area (Tt.Ar, Ct.Ar, and Ma.Ar, respectively, all mm^2); bone area fraction (Ct.Ar/Tt.Ar, %), cortical thickness (Ct.Th, mm), porosity (Ct.Po, %) and minimum (Imin, mm^4), maximum (Imax, mm^4), and polar (J, mm^4) moments of inertia. Bone was segmented from soft tissue using the same threshold, 300 mg HA/cm^3 for trabecular and 733 mg HA/cm^3 for cortical bone. Scanning and analyses adhered to the guidelines for the use of micro-CT for the assessment of bone architecture in rodents (74). For the primary spongiosa region (where intermittent PTH treatment has its predominant effect) analyzed in FIG. 13A, coronal CT slices were evaluated in a 500 μm (50 slices) region located centrally in the bone. […] The primary spongiosa bone region was identified by semi-manually contouring the region of interest. Images were thresholded using an adaptive-iterative algorithm. The average adaptive-iterative threshold of control mice (WT, vehicle treated) for the region of interest (299 mgHA/cm^3) were then used to segment bone from soft tissue for all distal femur images. Micro-CT analysis was done based on sample numbers in a completely blinded manner.
Right tibia from 8-week-old mice were subjected to bone histomorphometric analysis. […] The structural, dynamic and cellular parameters were calculated and expressed according to the standardized nomenclature (75).
48 female C57B/6 mice were subjected to sham surgery (SHAM; n=24) or oophorectomy (n=24) at 12 weeks of age. […] The mice were assessed by micro-CT (μ-CT) of the femur and L5 vertebrae, and static/dynamic histomorphometry of the tibia.

Each structure is given as a SMILES string.

As for `COc1ccc(N2C(=O)N(c3c(C)cccc3Cl)Cc3cnc(Nc4ccc(C5CCN(C)CC5)cc4OC)nc32)nc1` [YKL-05-099], in test [1], the “RANKL in bone RNA” value is recorded as “RANKL up-regulation” and the “SOST in bone RNA” value is “SOST down-regulation”. For the same molecule, the osteoblast numbers result in test [2] (FIG. 32A) is “increased osteoblast numbers”. In addition, in test [2] (FIG. 32C), the “osteoclast activity / eroded surfaces” value is reported as “reduced eroded surfaces”. In test [2] (FIG. 33C), the bone formation rate result is on record as “increased”. Moreover, the trabecular bone mass entry in test [2] (distal femur and L5 vertebrae) is “increased trabecular bone mass at both skeletal sites”.
